Assay results from patent US11529422B2, “Polymer linkers and their uses” (priority 2016, dated 2022).
Where a SMILES comes first, the peptide text is derived from it. [ ]: non-standard residue; d: D form. The star is where a group is joined. Dolaproine = CO[C@@H]([C@@H]1CCCN1)[C@@H](C)C(=O)O; Dil = CC[C@H](C)[C@H](NC)[C@@H](CC(=O)O)OC; NMe2Val = CC(C)[C@@H](C(=O)*)N(C)C

Key:
HCC1954 cells = assay: Cell Viability Assay (CellTiter-Glo), HCC1954; assay type: cell-based
Experimental: (§1) Compounds and conjugates were tested for their activity using the Cell Viability Assay (CellTiter-Glo® Luminescent Cell Viability Assay from Promega), which measures the number of viable cells in culture after treatment with the inventive compounds or conjugates for 72 hours based on quantitation of the ATP present (Cell Viability. IC50).

SK-BR-3 cells = assay: Cell Viability Assay (CellTiter-Glo), SK-BR-3; assay type: cell-based
Experimental: as §1

BT-474 cells = assay: Cell Viability Assay (CellTiter-Glo), BT-474; assay type: cell-based
Experimental: as §1

NCI-N87 cells = assay: Cell Viability Assay (CellTiter-Glo), NCI-N87; assay type: cell-based
Experimental: as §1

[1] = tested on: HER2 expressing cancer cell lines; details: for activity compared with free Auristatin F, in words: summary of Table 1
Experimental: Three HER2 expressing breast cancer cell lines (BT474, HCC1954 and SK-BR-3) and HER2 expressing gastric cancer cell line NCI-N87 were used in the viability assay. The cells were placed in opaque-walled 96-well plate and allowed to adhere overnight at 37° C. in 5% CO2 and 95% humidity atmosphere. Cell density per well: 7000 (BT474), 3000 (HCC1954), 5000 (NCI-N87), 4000 (SK-BR-3). The test compounds or conjugates were added to experimental wells, and incubate at 37° C. in 5% CO2 and 95% humidity atmosphere for 72 hours. The plates were equilibrated at room temperature for 30 min. CellTiter-Glo® reagent equal to the volume of cell culture medium present in each well was added. After cell lysis on an orbital shaker for 2 min, the plate was incubated at room temperature for 10 min. Luminescence were recorded using EnVision® Multilabel Reader (PerkinElmer, 2104-0010A). GraphPad Prism 5.0 was used to analyze the data. The dose response curves were determined, and the IC50 value was calculated.
Another assay measured the IC50 values for compounds 24 and 25 on the same cell lines and MCF7 breast cancer cell.

MCF7 breast cancer cell = assay: Cell Viability Assay (CellTiter-Glo), MCF7; assay type: cell-based; details: MCF7, Table 2 (another assay)
Experimental: as §1

[2] = HCC1954, Table 2 (another assay)
[3] = SK-BR-3, Table 2 (another assay)
[4] = BT-474, Table 2 (another assay)
[5] = NCI-N87, Table 2 (another assay)

poly(1-hydroxymethylethylene hydroxy-methyl formal)-SPA-(auristatin F 2-(2-hydroxy-ethoxy)-ethylamide L-Alanine)-SSPy [Compound 15]
IC50 (HCC1954 cells; HCC1954, 72 hours, Table 1): 23.9 nM | IC50 (SK-BR-3 cells; SK-BR-3, 72 hours, Table 1): 37 nM | IC50 (BT-474 cells; BT-474, 72 hours, Table 1): 57.4 nM | IC50 (NCI-N87 cells; NCI-N87, 72 hours, Table 1): > 500 nM | activity compared with free Auristatin F, in words [1]: activity similar to free Auristatin F

poly(1-hydroxymethylethylene hydroxy-methyl formal)-SPA-(auristatin F 2-(2-hydroxy-ethoxy)-ethylamide L-Alanine)-(Trastuzumab-MCC) [Compound 16]
IC50 (HCC1954 cells; HCC1954, 72 hours, Table 1): 0.13 nM | IC50 (SK-BR-3 cells; SK-BR-3, 72 hours, Table 1): 22 nM | IC50 (BT-474 cells; BT-474, 72 hours, Table 1): 0.39 nM | IC50 (NCI-N87 cells; NCI-N87, 72 hours, Table 1): 55.6 nM | activity compared with free Auristatin F, in words [1]: inhibition of HER2 increases significantly

N.N.[Cl][Pt][Cl] [Cisplatin, reference compound]
IC50 (HCC1954 cells; HCC1954, 72 hours, Table 1): 6050 nM | IC50 (HCC1954 cells; [2]): 6230 nM | IC50 (MCF7 breast cancer cell): 9150 nM | IC50 (SK-BR-3 cells; SK-BR-3, 72 hours, Table 1): 1920 nM | IC50 (SK-BR-3 cells; [3]): 871 nM | IC50 (BT-474 cells; BT-474, 72 hours, Table 1): > 100000 nM | IC50 (BT-474 cells; [4]): 38500 nM | IC50 (NCI-N87 cells; NCI-N87, 72 hours, Table 1): 4560 nM | IC50 (NCI-N87 cells; [5]): 1660 nM

poly(1-hydroxymethylethylene hydroxy-methyl formal)-SPA-(auristatin F 2-(2-hydroxy-ethoxy)-ethylamide L-Alanine)-maleimide [Compound 14]
IC50 (HCC1954 cells; HCC1954, 72 hours, Table 1): 32.2 nM | IC50 (SK-BR-3 cells; SK-BR-3, 72 hours, Table 1): 48 nM | IC50 (BT-474 cells; BT-474, 72 hours, Table 1): 87.9 nM | IC50 (NCI-N87 cells; NCI-N87, 72 hours, Table 1): > 500 nM | activity compared with free Auristatin F, in words [1]: activity similar to free Auristatin F

poly(1-hydroxymethylethylene hydroxy-methyl formal)-SPA-(auristatin F 2-(2-hydroxy-ethoxy)-ethylamide L-Alanine)-maleimide [Compound 24]
IC50 (HCC1954 cells; [2]): 45.9 nM | IC50 (MCF7 breast cancer cell): 230 nM | IC50 (SK-BR-3 cells; [3]): 56.6 nM | IC50 (BT-474 cells; [4]): 58 nM | IC50 (NCI-N87 cells; [5]): 91.5 nM

CC[C@H](C)[C@@H]([C@@H](CC(=O)N1CCC[C@H]1[C@H](OC)[C@@H](C)C(=O)N[C@@H](Cc1ccccc1)C(=O)O)OC)N(C)C(=O)[C@@H](NC(=O)[C@H](C(C)C)N(C)C)C(C)C [Auristatin F, reference compound] (NMe2Val-V[Dil][Dolaproine]F-OH)
IC50 (HCC1954 cells; HCC1954, 72 hours, Table 1): 38.2 nM | IC50 (HCC1954 cells; [2]): 200 nM | IC50 (MCF7 breast cancer cell): 1950 nM | IC50 (SK-BR-3 cells; SK-BR-3, 72 hours, Table 1): 51 nM | IC50 (SK-BR-3 cells; [3]): 233 nM | IC50 (BT-474 cells; BT-474, 72 hours, Table 1): 264 nM | IC50 (BT-474 cells; [4]): 1540 nM | IC50 (NCI-N87 cells; NCI-N87, 72 hours, Table 1): 69.8 nM | IC50 (NCI-N87 cells; [5]): 386 nM

poly(1-hydroxymethylethylene hydroxy-methyl formal)-SPA-(auristatin F 2-(2-hydroxy-ethoxy)-ethylamide L-Alanine)-Trastuzumab [Compound 25]
IC50 (HCC1954 cells; [2]): 0.2 nM | IC50 (MCF7 breast cancer cell): 3.3 nM | IC50 (SK-BR-3 cells; [3]): 0.1 nM | IC50 (BT-474 cells; [4]): 0.4 nM | IC50 (NCI-N87 cells; [5]): 0.3 nM | activity compared with compound 24 and controls, in words ([1]; summary of Table 2, same cell lines and MCF7): significant increase in activity as compared to compound 24

poly(1-hydroxymethylethylene hydroxy-methyl formal)-SPA-(auristatin F 2-(2-hydroxy-ethoxy)-ethylamide L-Alanine)-Trastuzumab [Compound 17]
IC50 (HCC1954 cells; HCC1954, 72 hours, Table 1): < 0.05 nM | IC50 (SK-BR-3 cells; SK-BR-3, 72 hours, Table 1): < 0.05 nM | IC50 (BT-474 cells; BT-474, 72 hours, Table 1): < 0.05 nM | IC50 (NCI-N87 cells; NCI-N87, 72 hours, Table 1): < 0.05 nM | activity compared with free Auristatin F, in words [1]: inhibition of HER2 increases significantly
